Test results from patent US8669208B2, “Herbicidal benzoxazinones” (BASF SE, priority 2010, dated 2014).

Experiments:
Format in all cases: in vivo
[1] = test system: Abutilon theophrasti; test: greenhouse herbicidal test, pre-emergence treatment; settings: pre-emergence method, application rate 50 g/ha; scale from 0 to 100
Excerpt: (§1) The seeds of the test plants were sown separately for each species. For the pre-emergence treatment, the active ingredients, which had been suspended or emulsified in water, were applied directly after sowing by means of finely distributing nozzles. The containers were irrigated gently to promote germination and growth and subsequently covered with transparent plastic hoods until the plants had rooted. This cover caused uniform germination of the test plants, unless this has been impaired by the active ingredients. Depending on the species, the plants were kept at 10-25° C. or 20-35° C. The test period extended over 2 to 4 weeks. During this time, the plants were tended, and their response to the individual treatments was evaluated. Evaluation was carried out using a scale from 0 to 100. 100 means no emergence of the plants, or complete destruction of at least the aerial moieties, and 0 means no damage, or normal course of growth. A good herbicidal activity is given at values of at least 70 and a very good herbicidal activity is given at values of at least 85. The plants used in the greenhouse experiments belonged to the following species: [table]

[2] = test system: Amaranthus retroflexus; test: as above; settings: pre-emergence method, scale from 0 to 100, read-out: herbicidal activity against Amaranthus retroflexus; for pest or weed control at 50 g/ha: application rate 50 g/ha; for pest or weed control at 25 g/ha: application rate 25 g/ha
Excerpt: as §1

[3] = test system: Chenopodium album; test: as above; settings: pre-emergence method, application rate 50 g/ha, scale from 0 to 100, read-out: herbicidal activity against Chenopodium album
Excerpt: as §1

[4] = test system: Kochia scoparia; test: greenhouse herbicidal test, post-emergence treatment; settings: post-emergence method, application rate 12.5 g/ha; scale from 0 to 100
Excerpt: (§2) The seeds of the test plants were sown separately for each species. For the post-emergence treatment, the test plants were first grown to a height of 3 to 15 cm, depending on the plant habit, and only then treated with the active ingredients which had been suspended or emulsified in water. For this purpose, the test plants were either sown directly and grown in the same containers, or they were first grown separately as seedlings and transplanted into the test containers a few days prior to treatment. Depending on the species, the plants were kept at 10-25° C. or 20-35° C. The test period extended over 2 to 4 weeks. During this time, the plants were tended, and their response to the individual treatments was evaluated. Evaluation was carried out using a scale from 0 to 100. 100 means no emergence of the plants, or complete destruction of at least the aerial moieties, and 0 means no damage, or normal course of growth. A good herbicidal activity is given at values of at least 70 and a very good herbicidal activity is given at values of at least 85. The plants used in the greenhouse experiments belonged to the following species: [table]

[5] = test system: Malva neglecta; test: as above; settings: post-emergence method, application rate 12.5 g/ha; scale from 0 to 100
Excerpt: as §2

[6] = test system: Amaranthus palmeri; test: as above; settings: post-emergence method, application rate 12.5 g/ha; scale from 0 to 100
Excerpt: as §2

[7] = test system: Viola arvensis; test: greenhouse herbicidal test, pre-emergence treatment; settings: pre-emergence method, application rate 25 g/ha; scale from 0 to 100
Excerpt: as §1

[8] = test system: Abutilon theophrasti; test: greenhouse herbicidal test, post-emergence treatment; settings: post-emergence method, application rate 1000 g/ha; scale from 0 to 100
Excerpt: as §2

Row | Structure (SMILES) | herbicidal activity against Abutilon theophrasti [1] | pest or weed control at 50 g/ha [2] [%] | pest or weed control at 50 g/ha [3] [%] | further results
1 | C#CCN1C(=O)C(F)(F)Oc2cc(F)c(N3C(=O)OC(=C(C)C)C3=O)cc21 [Example 10] | very good herbicidal activity (a very good herbicidal activity is given at values of at least 85) | ≥ 85 | ≥ 85 | 
2 | C#CCN1C(=O)C(F)(F)Oc2cc(F)c(-n3nc(C)nc3OC(F)F)cc21 [Example 12] | very good herbicidal activity (a very good herbicidal activity is given at values of at least 85) | ≥ 85 | ≥ 85 | 
3 | C#CCN1C(=O)C(F)(F)Oc2cc(F)c(N3C(=O)c4ccc(F)cc4C3=O)cc21 [Example 15] |  | ≥ 85 | ≥ 85 | 
4 | C#CCN1C(=O)C(F)(F)Oc2cc(F)c(/N=c3\sc(=O)n4n3CCCC4)cc21 [If48] | very good herbicidal activity (a very good herbicidal activity is given at values of at least 85) | ≥ 85 | ≥ 85 | 
5 | C#CCN1C(=O)C(F)(F)Oc2cc(F)c(N3C(=O)C(=O)N(CCC)C3=S)cc21 [Ii48, 1-Propyl-2-thioxo-3-(2,2,7-trifluoro-3-oxo-4-prop-2-ynyl-3,4-dihydro-2H-benzo[1,4]oxazin-6-yl)-imidazolidine-4,5-dione] |  |  |  | herbicidal activity against Kochia scoparia [4]: very good herbicidal activity (a very good herbicidal activity is given at values of at least 85); herbicidal activity against Malva neglecta [5]: very good herbicidal activity (a very good herbicidal activity is given at values of at least 85)
6 | C#CCN1C(=O)C(F)(F)Oc2cc(F)c(-n3nc(C)n(C(F)F)c3=O)cc21 [Example 11] | very good herbicidal activity (a very good herbicidal activity is given at values of at least 85) | ≥ 85 | ≥ 85 | 
7 | C#CCN1C(=O)C(F)(F)Oc2cc(F)c(N3C(=O)CC(C)CC3=O)cc21 [Example 14] | very good herbicidal activity (a very good herbicidal activity is given at values of at least 85) | ≥ 85 | ≥ 85 | 
8 | C#CCN1C(=O)C(F)(F)Oc2cc(F)c(N3C(=O)[C@H]4C[C@H](F)CN4C3=O)cc21 [Example 2, (6S,7aR)-6-Fluoro-2-(2,2,7-trifluoro-3-oxo-4-prop-2-ynyl-3,4-dihydro-2H-benzo[1,4]-oxazin-6-yl)-tetrahydro-pyrrolo[1,2-c]imidazole-1,3-dione] | very good herbicidal activity (a very good herbicidal activity is given at values of at least 85) | ≥ 85 | ≥ 85 | 
9 | C#CCN1C(=O)C(F)(F)Oc2cc(F)c(-n3c(=O)c4ccccc4n(C)c3=O)cc21 [Ik48, 1-Methyl-3-(2,2,7-trifluoro-3-oxo-4-prop-2-ynyl-3,4-dihydro-2H-benzo[1,4]oxazin-6-yl)-1H-quinazoline-2,4-dione] |  |  |  | herbicidal activity against Amaranthus palmeri [6]: very good herbicidal activity (a very good herbicidal activity is given at values of at least 85); herbicidal activity against Kochia scoparia [4]: very good herbicidal activity (a very good herbicidal activity is given at values of at least 85); herbicidal activity against Malva neglecta [5]: very good herbicidal activity (a very good herbicidal activity is given at values of at least 85); pest or weed control at 25 g/ha [2]: ≥ 85%; herbicidal activity against Viola arvensis [7]: good herbicidal activity (A good herbicidal activity is given at values of at least 70)
10 | C#CCN1C(=O)C(F)(F)Oc2cc(F)c(/N=c3\scc(C(F)(F)F)n3C)cc21 [Example 16] |  | ≥ 85 | ≥ 85 | 
11 | C#CCN1C(=O)C(F)(F)Oc2cc(F)c(/N=c3\snc4n3CC(C)(C)C4)cc21 [Example 13] |  | ≥ 85 | ≥ 85 | 
12 | C#CCN1C(=O)C(F)(F)Oc2cc(F)c(-n3nc(C(C)(C)C)oc3=O)cc21 [Ig48, 6-(5-tert-Butyl-2-oxo-[1,3,4]oxadiazol-3-yl)-2,2,7-trifluoro-4-prop-2-ynyl-4H-benzo[1,4]oxazin-3-one] |  |  |  | herbicidal activity against Amaranthus palmeri [6]: very good herbicidal activity (a very good herbicidal activity is given at values of at least 85); herbicidal activity against Kochia scoparia [4]: good herbicidal activity (A good herbicidal activity is given at values of at least 70); herbicidal activity against Malva neglecta [5]: very good herbicidal activity (a very good herbicidal activity is given at values of at least 85); pest or weed control at 25 g/ha [2]: ≥ 85%; herbicidal activity against Viola arvensis [7]: very good herbicidal activity (a very good herbicidal activity is given at values of at least 85)
13 | C#CCN1C(=O)C(F)(F)Oc2cc(F)c(-n3ncc(C(F)(F)F)c(C)c3=O)cc21 [Ia48, 2,2,7-Trifluoro-6-(5-methyl-6-oxo-4-trifluoromethyl-6H-pyridazin-1-yl)-4-prop-2-ynyl-4H-benzo[1,4]oxazin-3-one] |  |  |  | herbicidal activity against Amaranthus palmeri [6]: very good herbicidal activity (a very good herbicidal activity is given at values of at least 85); herbicidal activity against Kochia scoparia [4]: very good herbicidal activity (a very good herbicidal activity is given at values of at least 85); herbicidal activity against Malva neglecta [5]: very good herbicidal activity (a very good herbicidal activity is given at values of at least 85); pest or weed control at 25 g/ha [2]: ≥ 85%; herbicidal activity against Viola arvensis [7]: very good herbicidal activity (a very good herbicidal activity is given at values of at least 85)
14 | C#CCN1C(=O)C(F)(F)Oc2cc(F)c(-n3nc4n(c3=O)CCCC4)cc21 [Example 9] | very good herbicidal activity (a very good herbicidal activity is given at values of at least 85) | ≥ 85 | ≥ 85 | 
15 | Cn1nc(-c2cc3c(cc2F)OC(F)(F)C(=O)N3)cc1C(F)(F)F [Example 19] |  |  |  | herbicidal activity against Abutilon theophrasti [8]: very good herbicidal activity (a very good herbicidal activity is given at values of at least 85)
16 | C#CCN1C(=O)C(F)(F)Oc2cc(F)c(N3C(=O)CC(=C(C)C)C3=O)cc21 [Example 17] |  | ≥ 85 | ≥ 85 | 
